From patent US20240383865A1, “HIGH-ENERGY-VIOLET-ABSORBING VINYLIC MONOMERS” (Alcon Inc., priority 2023, published 2024)
Values after ≈ are worked out from the molar mass of the structure shown.

What was measured:
Type in all cases: physicochemical
[1] = Absorption edge of germanium photoinitiators
[2] = Solubility of HEVL-absorbing vinylic monomers in 1-propanol
Method: This example illustrates the correlation between the melting point and solubility of HEVL-absorbing vinylic monomers of
As anticipated, solubility in 1-propanol is improved, reaching >4.0 mg/ml (Table 1).

[3] = Dissolution of benzotriazole monomer in lens formulations; settings: for Dissolution in Lightstream formulation: formulations 6-1 (UV28) and 6-2 (UV35), mixing at room temperature then 40° C.; for Dissolution in thermally cured formulations: formulations 6-3 (UV28) and 6-4 (UV35), mixed at room temperature 1-2 hours
Method: All formulations in the amount of 10 g are mixed at room temperature for 1-2 hours. Following initial mixing, Lightstream formulations (6-1 and 6-2) are mixed for an additional 1-2 hours at 40° C. […] Both benzotriazoles-UV28 and UV35 dissolve in thermally cured formulations (6-3 and 6-4). Room temperature and refrigerated (3° C.) conditions are tested.

[4] = UV/visible absorption spectra of dilute solutions (40 ppm, 1 cm cuvette); settings: for UV/visible absorption profiles of UV28 and UV35 compared: 40 ppm, FIG. 3

Compound | Absorption edge [1] [nm] | Solubility in PrOH [2] [mg/mL] | solubility ([2]; organic solvent or mixture, read-out: Solubility in PrOH) [µg/mL] | Dissolution in Lightstream formulation [3] | Dissolution in thermally cured formulations [3] | UV/visible absorption profiles of UV28 and UV35 compared [4] | Absorption Peak ([4]; 40 ppm in 1-propanol) [nm]
CCc1ccccc1[C](=O)[Ge]([C](=O)c1ccccc1CC)([C](=O)c1ccccc1CC)[C](=O)c1ccccc1CC [TEB-Ge, tetrakis(2-ethylbenzoyl)-germanium] | 490 | – | – | – | – | – | –
C[CH2][Ge]([CH2]C)([C](=O)c1ccc(OC)cc1)[C](=O)c1ccc(OC)cc1 [BMBDE-Ge, Bis(4-methoxybenzoyl)diethylgermanium] | 470 | – | – | – | – | – | –
C=C(C)C(=O)OCCOCCOc1cc(-n2nc3ccc(Cl)cc3n2)c(O)c(C(C)(C)C)c1 [UV35, 2-propenoic acid, 2-methyl-, 2-[2-[3-(5-chloro-2H-benzotriazol-2-yl)-5-(1,1-dimethylethyl)-4-hydroxyphenoxy]ethoxy]ethyl ester] | – | >4.0 | > 4000 | dissolves completely | dissolve | equivalent | –
C=C(C)C(=O)OCCCOc1cc(-n2nc3ccc(Cl)cc3n2)c(O)c(C(C)(C)C)c1 [UV28, 2-{2′-Hydroxy-3′-tert-butyl-5′-[3′-methacryloyloxypropoxy]phenyl}-5-chloro-2H-benzotriazole, reference compound] | – | 1.5 (≈ 3.38 mM) | – | does not dissolve | dissolve | equivalent | 364
